Data published in the NIST ThermoML archive (doi:10.1021/je020195l).

Tests used:
[1] = excess molar enthalpy (molar enthalpy of mixing); xn = mol fraction of the nth substance listed; details: Liquid, Flow calorimetry
[2] = activity coefficient (dimensionless); of the first substance listed, at infinite dilution; xn = mol fraction of the nth substance listed; details: 101 kPa, Liquid, x1 = 0

CCOC(C)OCC [1,1-diethoxyethane] + C1CCCCC1
[1], 323.15 K, 1308 kPa
Details	excess molar enthalpy [kcal/mol]
x2 = 0.0648	0.0271
x2 = 0.1277	0.0506
x2 = 0.1887	0.0712
x2 = 0.2478	0.0882
x2 = 0.3052	0.103
x2 = 0.3609	0.114
x2 = 0.415	0.123
x2 = 0.4676	0.129
x2 = 0.5188	0.132
x2 = 0.5685	0.133
x2 = 0.6169	0.13
x2 = 0.664	0.126
x2 = 0.7099	0.12
x2 = 0.7546	0.111
x2 = 0.7981	0.0986
x2 = 0.8405	0.0849
x2 = 0.8819	0.0681
x2 = 0.9222	0.0481
x2 = 0.9616	0.0261

CCOC(C)OCC [1,1-diethoxyethane] + c1ccccc1
[1], 323.15 K, 1308 kPa
Details	excess molar enthalpy [kcal/mol]
x2 = 0.0778	-0.00197
x2 = 0.1511	-0.00364
x2 = 0.2204	-0.00483
x2 = 0.286	-0.0057
x2 = 0.3481	-0.00617
x2 = 0.4071	-0.0064
x2 = 0.4631	-0.0064
x2 = 0.5165	-0.00619
x2 = 0.5672	-0.00577
x2 = 0.6157	-0.00527
x2 = 0.6619	-0.0045
x2 = 0.7061	-0.00365
x2 = 0.7484	-0.00277
x2 = 0.7889	-0.00181
x2 = 0.8278	-0.000703
x2 = 0.865	7.17e-06
x2 = 0.9008	0.000676
x2 = 0.9351	0.00116
x2 = 0.9682	0.00114

CCC(C)(OC)OC [2,2-dimethoxybutane] + C1CCCCC1
[1], 303.15 K, 1204 kPa
Details	excess molar enthalpy [kcal/mol]
x2 = 0.0623	0.0257
x2 = 0.1229	0.0471
x2 = 0.1821	0.0671
x2 = 0.2397	0.0844
x2 = 0.296	0.0985
x2 = 0.3509	0.11
x2 = 0.4045	0.119
x2 = 0.4568	0.125
x2 = 0.5079	0.128
x2 = 0.5578	0.129
x2 = 0.6066	0.128
x2 = 0.6542	0.123
x2 = 0.7008	0.116
x2 = 0.7464	0.107
x2 = 0.791	0.0956
x2 = 0.8346	0.0821
x2 = 0.8773	0.0657
x2 = 0.919	0.0468
x2 = 0.9599	0.0259

CCC(C)(OC)OC [2,2-dimethoxybutane] + c1ccccc1
[1], 303.15 K, 1342 kPa
Details	excess molar enthalpy [kcal/mol]
x2 = 0.0747	0.00416
x2 = 0.1456	0.00676
x2 = 0.213	0.00906
x2 = 0.2772	0.0109
x2 = 0.3383	0.0128
x2 = 0.3966	0.0141
x2 = 0.4523	0.0151
x2 = 0.5056	0.0159
x2 = 0.5565	0.0165
x2 = 0.6053	0.0167
x2 = 0.6521	0.0165
x2 = 0.697	0.0162
x2 = 0.7402	0.0155
x2 = 0.7816	0.0145
x2 = 0.8215	0.0131
x2 = 0.8599	0.0112
x2 = 0.8968	0.00927
x2 = 0.9325	0.00651

c1ccccc1 [benzene] + CCOC(C)OCC
[2]
Details	activity coefficient
293.21 K	0.64
303.16 K	0.58
313.11 K	0.56
323.13 K	0.62

C1CCCCC1 [cyclohexane] + CCOC(C)OCC
[2]
Details	activity coefficient
293.08 K	1.76
303.18 K	1.72
313.12 K	1.67
323.14 K	1.64
